In US20210379153A1, “COMBINATION THERAPIES COMPRISING SIRP ALPHA-BASED CHIMERIC PROTEINS” (Shattuck Labs, Inc., priority 2018, published 2021):

Legend:
[1] = Repeat-dose safety and activity study in cynomolgus macaques; format: in vivo
Method: FIG. 21 is a graph showing cynomolgus macaques that were treated with vehicle, or 0.1, 1, 10, and 40 mg/kg of SIRPα-Fc-CD40L. Blood chemistry analysis assessed peripheral erythrocyte counts, hemoglobin levels, and hematocrit. In addition, the fold-change in lymphocyte count from pre-dose to 24 hours post-dose is shown.
The experiments of this example tested the safety and activity of the human SIRPα-Fc-CD40L chimeric protein following repeat doses in cynomolgus macaques. Briefly, naïve cynomolgus macaques were administered the human SIRPα-Fc-CD40L chimeric protein by intravenous infusion every week, for five consecutive weeks, at doses of 0.1, 1, 10 and 40 mg/kg. Standard hematology and clinical chemistry parameters were collected before and after each dose.
Receptor occupancy was evaluated on circulating CD40+ lymphocytes.

[2] = test system: HCC827 (high EGFR-expressing lung cancer cell line); test: Macrophage engulfment of HCC827 cells; format: cell-based, human; settings: combination with anti-EGFR antibody (cetuximab); vs low EGFR-expressing tumor cells
[3] = test system: cynomolgus macaque erythrocytes; test: In vitro hemolysis, cynomolgus macaque erythrocytes; format: cell-based
From the text: However, the in vitro systems used to test this question have significant limitations, including a complete lack of macrophages in the test system.

CT26 tumors = test: Syngeneic CT26 colon tumor model vs CD40 agonist and CD47 blocking antibodies (Example 11); format: in vivo, mice
From the text: Mice were inoculated with CT26 tumors on day 0 and treated at a later starting date than FIG. 20A with mSIRPα-Fc-CD40L ARC on days 7, 9, and 11. […] In FIG. 20D and FIG. 20E, BALB/C mice were inoculated with WEHI3 tumors (FIG. 20D) or A20 tumors (FIG. 20E) subcutaneously on the rear flank, and then treated via IP injection with anti-CD20 or mSIRPα-Fc-CD40L on days 7, 9, and 11 (WEHI3) or days 10, 12, and 14 (A20); when tumors were established and reached approximately 57-60 mm^3. A cohort of mice were pre-treated with an interferon alpha receptor 1 (IFNAR1) blocking antibody ([…] by IP injection) on days −1, 1, and 10 (WEHI3) or on days −1, 1, and 13 (A20). […] Samples were normalized to untreated animals.
Implanted CT26 tumors were allowed to grow to […] before treatment was initiated with a fixed regimen of two doses of either a CD40 agonist antibody (clone FGK4.5), a CD47 blocking antibody (clone MIAP301), a combination of the two antibodies, or the murine SIRPα-Fc-CD40L chimeric protein.

WEHI3 tumors = test: WEHI3 tumor model; format: in vivo, BALB/C mice
Method: FIG. 20C: a similar CT26 experiment was initiated as described in FIG. 20A above, however mice were pre-treated on days −1, 1, and 10 with IP injections of 100 μg of either or both CD4/CD8 depleting antibodies. Mice were inoculated with CT26 tumors on day 0 and treated at a later starting date than FIG. 20A with mSIRPα-Fc-CD40L ARC on days 7, 9, and 11. […] In FIG. 20D and FIG. 20E, BALB/C mice were inoculated with WEHI3 tumors (FIG. 20D) or A20 tumors (FIG. 20E) subcutaneously on the rear flank, and then treated via IP injection with anti-CD20 or mSIRPα-Fc-CD40L on days 7, 9, and 11 (WEHI3) or days 10, 12, and 14 (A20); when tumors were established and reached approximately 57-60 mm^3. A cohort of mice were pre-treated with an interferon alpha receptor 1 (IFNAR1) blocking antibody ([…] by IP injection) on days −1, 1, and 10 (WEHI3) or on days −1, 1, and 13 (A20). FIG. 20F to FIG. 20H are graphs showing blockade of CD4, CD8, and IFNAR1. Peripheral blood analysis by flow cytometry of CD4 (FIG. 20F), CD8 (FIG. 20G), and IFNAR1 (FIG. 20H) depletion following depleting antibody treatment corresponding to FIG. 20C to FIG. 20E. Samples were normalized to untreated animals.
In a second set of experiments, a combination of an anti-IFNAR-1 antibody and the anti-CD20 antibody, the SIRPα(CD172a)-Fc-CD40L chimeric protein in combination with the anti-IFNAR-1 antibody, and a triple combination of the SIRPα(CD172a)-Fc-CD40L chimeric protein, the anti-IFNAR-1 antibody, and the anti-CD20 antibody were tested. […] The depletion of IFNAR1+ cells was confirmed at multiple time points in the peripheral blood by flow cytometry (FIG. 20H).

CT26 tumor cells = test: CT26 tumor model, checkpoint antibody combinations (first Example 8); format: in vivo, BALB/C mice
Method: In FIG. 15B, the treatments included: an anti-CTLA-4 antibody (9D9), an anti-PD-1 antibody (RMP1-14), an anti-OX40 antibody (OX86), or the SIRPα(CD172a)-Fc-CD40L chimeric protein. […] In FIG. 15D, the treatments included the SIRPα(CD172a)-Fc-CD40L chimeric protein then the anti-CTLA-4 antibody. Tumor sizes were assayed every other day until the 27th day after inoculation.

SIRPα-Fc-CD40L: generic name of the SIRPαECD-Fc-CD40LECD chimeric protein; human or murine version according to the experiment
total number of lymphocytes (episodic fluctuation) ([1]; before and after each dose): did not depart from the upper and lower range of normal
number of CD40+ cells in the peripheral blood ([1]; cynomolgus monkey, in vivo): dose-dependent decrease
serum cytokines/chemokines (CCL2, CXCL9, CXCL10, IL-6, IL-15, IL-17A, IL-23) ([1]; following each infusion): dose-dependent increases
macrophage engulfment of tumor cells [2]: more effective
hemolysis [3]: did not reveal evidence of hemolysis
proportion of AH1-tetramer positive CD8+ T cells in tumor and spleen (CT26 tumors; 13 days following tumor inoculation): increase in the proportion
therapeutic benefit with CD4 depletion (CT26 tumors; antibody-mediated depletion of CD4+ cells): partially required
therapeutic benefit with CD8 depletion (CT26 tumors; antibody-mediated depletion of CD8+ cells): completely eliminated the therapeutic benefit
tumor size (WEHI3 tumors; combination with anti-CD20 antibody): reduced tumor size greater than either component alone
tumor reduction (WEHI3 tumors; combination with anti-IFNAR-1 antibody vs chimeric protein alone): less tumor reduction
tumor reduction (WEHI3 tumors; triple combination with anti-CD20 and anti-IFNAR-1 antibodies vs chimeric protein plus anti-CD20): less tumor reduction
improvement in tumor volume (CT26 tumor cells; chimeric protein administered after the anti-CTLA-4 antibody): most significant improvement
tumor volume (CT26 tumor cells; combination with anti-CTLA-4 antibody): reduced tumor volume
